Measurements taken from PubChem BioAssay (NCI).
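Growth conditions: 96-well plates. Treatment: test compound, 48 hours, 5 concentrations. Analysis: linear interpolation between bracketing concentrations; unreached endpoints set to highest concentration. The concentration for 50% growth inhibition is given as GI50. The concentration for full growth arrest is given as TGI.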

Experiments:
Assay in all cases: growth of human tumour cells (NCI), 48 h
[1] = tested on: HS 578T breast
[2] = tested on: HT29 colon
[3] = tested on: KM12 colon
[4] = tested on: NCI-H23 lung
[5] = tested on: OVCAR-3 ovarian
[6] = tested on: OVCAR-5 ovarian
[7] = tested on: T-47D breast
[8] = tested on: UO-31 renal
[9] = tested on: CAKI-1 renal
[10] = tested on: EKVX NSCLC

Compound	GI50 [1] [µM]	TGI [1] [µM]	GI50 [2] [µM]	TGI [2] [µM]	GI50 [3] [µM]	TGI [3] [µM]	GI50 [4] [µM]	TGI [4] [µM]	GI50 [5] [µM]	TGI [5] [µM]	GI50 [6] [µM]	TGI [6] [µM]	GI50 [7] [µM]	TGI [7] [µM]	GI50 [8] [µM]	TGI [8] [µM]	GI50 [9] [µM]	TGI [9] [µM]	TGI [10] [µM]	GI50 [10] [µM]
CCC/C(=N/N=C(N)N)c1ccc(NC(=O)c2cc3cc(OC)ccc3[nH]2)cc1	14	48.4	4.49	20	2.28	4.78	16	36.2	6.36	29.7	14.7	32.3	7.06	32.9	17.9	38	–	–	–	–
CC1=C2C[C@H]3[C@@H](CC[C@@H]4CC(NS(C)(=O)=O)CC[C@@]43C)[C@@H]2CC[C@@]2(C1)O[C@@H]1C[C@H](C)CN[C@H]1[C@H]2C (some centres undefined)	11.8	37.5	3.5	11.3	9.22	22.6	16.3	33.2	4	14	13.7	27.5	2.68	7.51	10.7	23.5	7.63	22	–	–
O=C(CC1(O)C(=O)Nc2c(Cl)ccc(Cl)c21)c1ccc2ccccc2c1 (centres undefined)	–	–	–	8.61	–	17.8	–	27	–	14.3	–	39.5	–	–	–	34.9	–	16.5	31	–
CC(=O)[CH-]C(=O)c1ccccc1.CC(=O)[CH-]C(=O)c1ccccc1.CC(C)CCCC(C)[C@H]1CCC2[C@@H]3CC=C4C[C@@H]([O-])CC[C@]4(C)C3CC[C@@]21C.CC[O-].[Ti+4] (some centres undefined)	–	–	64	> 100	39.6	> 100	26.9	84.2	49.7	> 100	> 100	> 100	–	–	29.4	> 100	> 100	> 100	> 100	66.8
COc1ccc(/C=C\c2cc(OC)c(OC)c(OC)c2)cc1OC(=O)c1cccc(Cn2cc(CCOC(=O)[C@H](N)Cc3cn(C)c4ccccc34)nn2)c1	< 0.01	> 100	0.379	> 20.9	< 0.01	16.5	< 0.01	63.7	< 0.01	18.9	0.0886	> 100	–	–	0.192	> 45.1	< 0.0139	> 61.3	> 100	0.0538
COc1cc(-c2nn(-c3cccc(NC(=O)Nc4cc(C(F)(F)F)cc(C(F)(F)F)c4)c3)cc2-c2ccncc2)ccc1Cl	1.16	8.81	0.619	1.68	0.412	2.09	0.59	3.94	0.293	1.07	1.09	3.54	1.03	26.7	0.612	1.52	0.852	2.93	–	–
Cn1c(=O)nc2n(-c3cccc(Br)c3)c3ccccc3nc-2c1=O	–	–	–	–	–	21	–	4.91	–	5.94	–	26.1	–	–	–	26.3	–	32.7	13.3	–
COC(=O)/C([Se]c1c(C)cc(C)cc1C)=C(\[Se]c1c(C)cc(C)cc1C)C(=O)OC	–	–	–	> 100	–	> 100	–	> 100	–	> 100	–	> 100	–	–	–	> 100	–	> 100	> 100	–
CCn1c(CN2CCN(Cc3ccccc3)CC2)nc2cc(NC(=O)c3cccs3)ccc21	16.9	48.8	16.8	47.3	14.8	32	19.9	57	20.6	> 100	17	63.3	6.8	33.8	15.3	42.6	18	63	–	–
Cc1ccccc1C(=O)c1ccccc1O	–	–	–	> 100	–	> 100	–	> 100	–	> 100	–	> 100	–	–	–	> 100	–	> 100	> 100	–
O=C1NC(O)C(c2c[nH]c3ccccc23)=C1c1c[nH]c2ccccc12 (centres undefined)	25	> 25	> 25	> 25	> 25	> 25	> 25	> 25	> 25	> 25	> 25	> 25	> 25	> 25	15.7	> 25	> 25	> 25	–	–
CC(C)[C@H](CO)Nc1nc(Nc2ccc(C(=O)NCCNS(=O)(=O)c3cccc4c(N(C)C)cccc34)c(Cl)c2)c2ncn(C(C)C)c2n1	2.08	> 100	2.5	> 41.8	0.447	2.72	3	> 36.2	2.65	> 66.9	5.18	> 100	2.93	> 82.5	9.78	> 100	5.78	> 100	–	–
CN(C)c1ccc([O][Bi]([Cl])[Cl])cc1	–	–	> 100	> 100	> 100	> 100	> 100	> 100	> 100	> 100	> 100	> 100	–	–	> 100	> 100	> 100	> 100	> 100	> 100
CCOC(=O)N1CCc2cc(OC)c(OC)c3c2c1cc1cc(OC)c(OC)cc13	–	–	–	21.6	–	67.7	–	55.6	–	8.64	–	> 100	–	> 60.2	–	> 100	–	84.2	> 100	–
CCc1c(C#N)c(S[C@@H](C(N)=O)c2ccccc2)nc(N(C)C)c1C#N	–	–	> 100	> 100	> 100	> 100	21.1	> 100	> 100	> 100	> 100	> 100	> 100	> 100	2.95	> 100	12.9	> 100	> 100	7.93
